Read-outs that look alike come from different tables or passages of the source.

Assay [1] concerns HCT116 MTAP^−/− cells. The assay can be described thus: Cell proliferation inhibition test (Cell-Titer Glo), HCT116 MTAP−/−. The note with it: Homo sapiens, HCT-116, 144 h, 6 days, read-out: HCT116 MTAP−/− Antiproliferative activity IC50. Type of assay: cell-based, human. As to the method:
(§1) Test Example 3. Cell Proliferation Inhibition Test of Human Colon Cancer HCT116 WT Cells and HCT116 MTAP-1-Cells
(§2) The brief introduction of the test principle: After the test MAT2A inhibitor was incubated with cancer cells for a period of time, the effect of the test compound on cell proliferation was measured using a cell proliferation count method based on the ATP content.
(§3) Reference: The experiment referred to the method disclosed in patent WO2018045071.
(§4) Material and cell: HCT116 WT cells and HCT116 MTAP^−/− cells were purchased from KYinno; fetal bovine serum, McCoy's 5a culture medium, and penicillin-streptomycin were purchased from Gibco Company (U.S.), 96-well plates were purchased from Corning Company (U.S.), and the Cell-Titer Glo reagent was purchased from Promega Company (U.S.).
(§5) Cell culture: HCT116 WT cells and HCT116 MTAP^−/− cells were cultured with a McCoy's 5a medium containing 10% fetal bovine serum+1% penicillin-streptomycin at 37° C. with 5% CO2.
(§6) Cells at logarithmic growth phase were available for the experiment.
(§7) Cell proliferation activity test: The Cell-Titer Glo reagent was used to test the compound for inhibitory activity on proliferation of both HCT116 WT and HCT116 MTAP^−/− cell strains. The cells were adjusted to a concentration of 400 cells per well, seeded on a 96-well plate, and incubated overnight at 37° C. with 5% CO2.
(§8) In the experimental group, the test compound was diluted sequentially with DMSO and a culture medium, and transferred to a cell plate at a final concentration of 10 μM, 3-fold dilution. The cells were continuously cultured at 37° C. with 5% CO2 for 6 days. The Cell-Titer Glo reagent was added and the cell activity was measured.
(§9) A negative control group and a positive control group were respectively used as Bottom and Top. The negative control group was not added with cells, only added with the culture medium in the same volume, and other operations were consistent with those of the experimental group. The positive control group was not added with the test compound, only added with DMSO in the same volume, and other operations were consistent with those of the experimental group.
(§10) The % Compound inhibition was calculated and fitted to give the IC50 of the compound.
(§11) % Compound inhibition=1-100%×(Signal−Bottom)/(Top−Bottom).
(§12) Signal referred to the signal value of the experimental group, Bottom referred to the average signal value of the negative control group, and Top referred to the average signal value of the positive control group.
(§13) HCT116 MTAP^−/− cells are cells not expressing MTAP protein obtained by site-directed knockout of wild type HCT116 (HCT116 WT) cells by gene knockout. Synthetic lethality will occur due to MAT2A inhibition and the deletion of MTAP, thereby causing tumor cell death. The activity and selectivity of the MAT2A inhibitor can be evaluated by testing the antiproliferative activity of the MAT2A inhibitor on human colon cancer HCT116 MTAP^−/− cells and human colon cancer HCT116 WT.

For a further assay, the system named is HCT116 WT cells. The assay can be described thus: Cell proliferation inhibition test (Cell-Titer Glo), HCT116 WT. Type of assay: cell-based, human. Particulars: Homo sapiens, HCT-116, 144 h, 6 days, read-out: HCT116 WT Antiproliferative activity IC50. As to the method: as §1, §2, §3, §4, §5, §6, §7, §8, §9, §10, §11, §12, §13
In assay [2] the test system is HCT116 MTAP^−/− cells. The assay can be described thus: Determination of intracellular SAM level by LC-MS/MS. The class given is cell-based. Particulars: Homo sapiens, HCT-116, 6 h, read-out: SAM production inhibitory activity IC50. As to the method: Test Example 2. Determination of Intracellular SAM Level
The brief introduction of the test principle: After the test MAT2A inhibitor was incubated with cancer cells for a period of time, the cells were lysed with a stop reagent to quench the activity of the MAT2A enzyme. The catalytic product SAM of MAT2A in the cell lysate was quantitatively determined by LC-MS/MS, and thus the activity of MAT2A in the cell was reflected.
as §3
Material and cell: HCT116 MTAP^−/− cells were purchased from KYinno; fetal bovine serum, McCoy's 5a culture medium, and penicillin-streptomycin were purchased from Gibco Company (U.S.), and 96-well plates were purchased from Corning Company (U.S.).
Cell culture: HCT116 MTAP^−/− cells were cultured with a McCoy's 5a medium containing 10% fetal bovine serum+1% penicillin-streptomycin at 37° C. with 5% CO2. Cells at logarithmic growth phase were available for the experiment.
LC-MS/MS detection: The effect of the compound on the SAM production level in HCT116 MTAP^−/− cell strains was detected by LC-MS/MS. The cells were adjusted to a concentration of 50000 cells per well, seeded on a 96-well plate, and incubated overnight at 37° C. with 5% CO2. In the experimental group, the test compound was dissolved in DMSO, diluted sequentially with DMSO and a culture medium, and transferred to a cell plate at a final concentration of 10 μM, 3-fold dilution. The cells were continuously cultured at 37° C. with 5% CO2 for 6 h. The supernatant was pipetted off. After the cells were washed once with PBS, glacial acetic acid was added to lyse the cells. After the lysate was processed, the SAM concentration was determined by LC-MS/MS analysis.
A negative control group and a positive control group were respectively used as Bottom and Top. The negative control group was added with 10 μM positive compound (compound 072 of Example 51 of patent WO2021139775A1) in the same volume, and other operations were consistent with those of the experimental group. The positive control group was not added with the test compound, only added with DMSO in the same volume, and other operations were consistent with those of the experimental group.
as §10
% Compound inhibition=1−100%×(Signal−Bottom)/(Top−Bottom)
as §12

The target in a further assay is MAT2A (Homo sapiens (Human), UniProt P31153). The assay can be described thus: MAT2A biochemical test (inorganic phosphate colorimetric, PiColorLock). The note with it: read-out: MAT2A inhibitory Activity IC50. In short, it runs like this: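 Compounds tested from 10 μM top concentration in 3-fold dilutions, preincubated 120 min at room temperature with MAT2A ([…] final) in Tris/KCl/MgCl2/EDTA/BSA buffer. Reaction started with […] L-methionine and 400 μM ATP, run 90 min at room temperature; phosphate read by PiColorLock after 30 min. IC50 fitted from % inhibition versus no-enzyme and DMSO controls.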
Sequence of MAT2A (P31153 whole entry): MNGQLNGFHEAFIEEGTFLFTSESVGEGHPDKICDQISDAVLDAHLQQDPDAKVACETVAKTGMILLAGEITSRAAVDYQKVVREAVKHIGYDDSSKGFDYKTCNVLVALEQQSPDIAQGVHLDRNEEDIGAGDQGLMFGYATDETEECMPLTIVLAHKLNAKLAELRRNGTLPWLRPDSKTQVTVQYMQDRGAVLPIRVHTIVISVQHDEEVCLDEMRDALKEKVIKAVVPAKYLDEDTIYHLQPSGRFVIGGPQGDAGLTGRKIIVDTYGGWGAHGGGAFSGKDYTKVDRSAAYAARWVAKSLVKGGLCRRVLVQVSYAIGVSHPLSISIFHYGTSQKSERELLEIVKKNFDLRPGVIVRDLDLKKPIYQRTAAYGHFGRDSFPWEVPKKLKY

As to `Cn1cnc2c(=O)n(-c3ccccc3Cl)c3nc(C(F)(F)F)ccc3c21` [Compound 2, 5-(2-chlorophenyl)-1-methyl-7-(trifluoromethyl)-1,5-dihydro-4H-imidazo[4,5-c][1,8]naphthyridin-4-one], the IC50 in the assay with HCT116 MTAP^−/− cells [1] was 529 nM; in the assay with HCT116 WT cells, 4770 nM; in the assay with HCT116 MTAP^−/− cells [2] it was 7.4 nM; at MAT2A (class symbols), less than 100 nM; at MAT2A (numeric values) it was 69.3 nM.
With `Cc1cccc(-n2c(=O)c3ncn(C)c3c3ccc(C(F)(F)F)nc32)c1Cl` [Compound 36, 5-(2-chloro-3-methylphenyl)-1-methyl-7-(trifluoromethyl)-1,5-dihydro-4H-imidazo[4,5-c][1,8]naphthyridin-4-one], the IC50 with HCT116 MTAP^−/− cells [1] was 81.5 nM; in the assay on HCT116 WT cells, 9970 nM; in the assay with HCT116 MTAP^−/− cells [2] it was 5.6 nM; on MAT2A (class symbols) it was less than 100 nM; at MAT2A (numeric values) it was 52.6 nM.
The matching figures for `Cn1cnc2c(=O)n(-c3cccc(Cl)c3Cl)c3nc(C(F)(F)F)ccc3c21` [Compound 37, 5-(2,3-dichlorophenyl)-1-methyl-7-(trifluoromethyl)-1,5-dihydro-4H-imidazo[4,5-c][1,8]naphthyridin-4-one]: 169 nM, 9060 nM, 8.8 nM, less than 100 nM and 48.3 nM.

The values above are taken from patent US20240124454A1, “TRICYCLIC COMPOUND AND USE THEREOF” (NANJING ZAIMING PHARMACEUTICAL CO., LTD., priority 2020, published 2024).
